Results: PubChem BioAssay (NCI)
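48-hour exposure; five concentrations; linearly interpolated endpoints. Abbreviation: GI50, concentration required for 50% inhibition of growth. TGI denotes the concentration required for complete inhibition of growth.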

Experiments:
Assay in all cases: NCI anticancer screen, dose series, 48 h
A498 renal = tested on: A498 renal
LOX IMVI melanoma = tested on: LOX IMVI melanoma
OVCAR-4 ovarian = tested on: OVCAR-4 ovarian
SW-620 colon = tested on: SW-620 colon
MCF7 breast = tested on: MCF7 breast
T-47D breast = tested on: T-47D breast
SNB-75 CNS = tested on: SNB-75 CNS
CAKI-1 renal = tested on: CAKI-1 renal
OVCAR-3 ovarian = tested on: OVCAR-3 ovarian
UO-31 renal = tested on: UO-31 renal
SK-MEL-2 melanoma = tested on: SK-MEL-2 melanoma
HOP-62 NSCLC = tested on: HOP-62 NSCLC
CCRF-CEM leukemia = tested on: CCRF-CEM leukemia
IGROV1 ovarian = tested on: IGROV1 ovarian
K-562 leukemia = tested on: K-562 leukemia
HCT-15 colon = tested on: HCT-15 colon
NCI-H460 lung = tested on: NCI-H460 lung
SN12C renal = tested on: SN12C renal
KM12 colon = tested on: KM12 colon
DU-145 prostate = tested on: DU-145 prostate
BT-549 breast = tested on: BT-549 breast
SK-MEL-5 melanoma = tested on: SK-MEL-5 melanoma
SR leukemia = tested on: SR leukemia
RPMI-8226 leukemia = tested on: RPMI-8226 leukemia
HCT-116 colon = tested on: HCT-116 colon
SNB-19 CNS = tested on: SNB-19 CNS
MDA-MB-435 = tested on: MDA-MB-435
HS 578T breast = tested on: HS 578T breast
786-0 renal = tested on: 786-0 renal

## COc1cc2cc(C(=O)N3C[C@@H](CCl)c4c3cc(OC(=O)N(CCC(=O)N3CCN(C)CC3)C3CCCCC3)c3ccccc43)[nH]c2c(OC)c1OC
A498 renal
  GI50: 2770 nM
  TGI: 5270 nM
LOX IMVI melanoma
  GI50: 1100 nM
  TGI: 2760 nM
OVCAR-4 ovarian
  GI50: 2340 nM
  TGI: 6350 nM
SW-620 colon
  GI50: 1890 nM
  TGI: 12600 nM
MCF7 breast
  GI50: 318 nM
  TGI: 2630 nM
T-47D breast
  GI50: 1900 nM
  TGI: 6630 nM
SNB-75 CNS
  GI50: 1290 nM
  TGI: 3700 nM
CAKI-1 renal
  GI50: 1490 nM
  TGI: 7650 nM
OVCAR-3 ovarian
  GI50: 2100 nM
  TGI: 4670 nM
UO-31 renal
  GI50: 1880 nM
  TGI: 6340 nM
SK-MEL-2 melanoma
  GI50: 1980 nM
  TGI: 3500 nM
HOP-62 NSCLC
  GI50: 594 nM
  TGI: 9110 nM
CCRF-CEM leukemia
  GI50: 993 nM
  TGI: 12100 nM
IGROV1 ovarian
  GI50: 2310 nM
  TGI: 7760 nM
K-562 leukemia
  GI50: 677 nM
  TGI: 20300 nM
HCT-15 colon
  GI50: 1730 nM
  TGI: 6710 nM
NCI-H460 lung
  GI50: 512 nM
  TGI: 10700 nM
SN12C renal
  GI50: 1200 nM
  TGI: 10200 nM
KM12 colon
  GI50: 2070 nM
  TGI: 7250 nM
DU-145 prostate
  GI50: 456 nM
  TGI: 4630 nM
BT-549 breast
  GI50: 1590 nM
  TGI: 4220 nM
SK-MEL-5 melanoma
  GI50: 1640 nM
  TGI: 3220 nM
SR leukemia
  GI50: 276 nM
  TGI: 1930 nM
RPMI-8226 leukemia
  GI50: 1470 nM
  TGI: 5080 nM
HCT-116 colon
  GI50: 1500 nM
  TGI: 9940 nM
SNB-19 CNS
  GI50: 2220 nM
  TGI: 20000 nM
MDA-MB-435
  GI50: 1780 nM
  TGI: 3650 nM
HS 578T breast
  GI50: 2420 nM
  TGI: 7110 nM
786-0 renal
  GI50: 1730 nM
  TGI: 10100 nM
